In patent US20260184697A1, “EZH1/2 INHIBITOR, PREPARATION THEREOF, AND USE THEREOF IN ANTI-TUMOR THERAPY” (JIANGSU TASLY DIYI PHARMACEUTICAL CO., LTD., priority 2022, published 2026):
Read-outs that look alike come from different tables or passages of the source.

Key:
Karpas-422 cells = assay: Anti-proliferation by Cell Titer-Glo method (Test Example 3); type: cell-based; conditions: Homo sapiens
Method: Karpas-422 (Nanjing Kebai, CBP60629) cells were seeded in a 96-well plate (Corning, 3894) at 1,000 cells per well in growth medium (80% 1640 (Hyclone, SH30809.01)+20% FBS (Corning, 35-081-CV)), in a total of 100 μL, and then was added with 25 μL of 5-fold different concentrations of compounds diluted in growth medium. The cell growth group without compound addition was used as a positive control (maximum signal control), and the medium was used as a negative control (minimum signal control), while ensuring that the final contration of DMSO in each reaction well was 0.2%. Then the 96-well cell plate was placed in a cell culture incubator (37° C., 5% CO2) and incubated for 3 days. On the fourth day, the cell culture plate was taken out of the incubator, using a row gun to gently blow the cells up and down to mix, removing 62.5 μL of the cell suspension, adding 50 μL of growth medium and 12.5 μL of compounds of 5 times different concentrations, and then putting them in the cell incubator to incubate for 4 days. On the eighth day, the same method was used as the fourth day to treat the cells, then incubating in the cell culture incubator for 3 days. On the eleventh day, the Cell-Titer Glo (Promega, G7573) was used to detect cell viability, and a microplate reader was used to detect the signal value of luminescence.
The inhibition rate of different concentrations of compounds on cells was calculated as inhibition rate=[1−(compound signal value−negative control signal value)/(positive control signal value-negative control signal value)][…]. The IC50 of the compound on cell activity inhibition was calculated by GraphPad Prism 6 with log(inhibitor) vs. response-Variable slope model fitting. The fitting equation is: Y=Bottom+(Top−Bottom)/(1+10^((Log IC50−X)*Hill Slope)), wherein Y represents the inhibition rate, and X represents the known concentration of the compound after Log.

EZH2/SUZ/EED = molecular target: T1, EZH2/SUZ/EED (Homo sapiens, UniProt O75530+Q15022+Q15910); assay: Inhibitory effect on EZH2 by the MTase-Glo method (Test Example 1); type: biochemical; conditions: EZH2/SUZ/EED 6.25 nM, H3 peptide 10 μM, SAM 3 μM, 30° C. 3 h, read-out: Test Example 1 WT EZH2 IC50
T1 construct: purchased BPS 51003
Method in brief: (§1)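 EZH2/SUZ/EED (6.25 nM) or EZH1/SUZ/EED (25 nM) pre-incubated 15 min with compound in pH 7.6 Bicine buffer, 0.5% DMSO. Biotinylated H3(21-44) peptide 10 μM plus SAM 3 μM reacted 3 h at 30 °C; MTase-Glo luminescence normalized to controls, IC50 from variable-slope fit.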

[1] = test system: H3K27Me3 methylation in Karpas-422 cells; assay: H3K27Me3 cell method, inhibition of H3K27Me3 methylation (Test Example 2); type: cell-based, human
Method: Karpas-422 (Nanjing Kebai, CBP60629) cells were seeded in a 96-well plate (Corning, 3894) at 15,000 cells per well in culture medium (80% 1640 (Hyclone, SH30809.01)+20% FBS (Corning, 35-081-CV)), and then added with different concentrations of compounds for treatment. The cell growth group without adding compounds is used as a positive control (maximum signal control), and the medium is used as a negative control (minimum signal control), while ensuring that in each reaction well, the final concentration of DMSO was 0.2%. Compounds and cells were incubated for 3 days in a cell culture incubator (37° C., 5% CO2). The 96-well plate was taken out from the cell culture incubator and equilibrated to room temperature, and 25 ul of cell suspension was taken out into a 384-well plate. The CCK8 (Beiyuntian, C0040) detection reagent was added, incubated at 37° C. for 1 h, and […] was detected. The rest of the cells followed the procedure of the kit EPIgeneous H3K27Me3 cellular kit (Cisbio, 62KC3PAE) to carry out experiment, read HTRF signal with BMG PHERAStar. […] By GraphPad Prism 6 with log(inhibitor)vs.response-Variable slope model simulation, the IC50 of the compound on cell activity inhibition was calculated. The fitting equation is: Y=Bottom+(Top−Bottom)/(1+10^((Log IC50−X)*HillSlope)), wherein Y represents the inhibition rate, and X represents the known concentration of the compound after Log.

EZH1/SUZ/EED = molecular target: T2, EZH1/SUZ/EED (Homo sapiens, UniProt O75530+Q15022+Q92800); assay: Inhibitory effect on EZH1 by the MTase-Glo method (Test Example 1); type: biochemical; conditions: EZH1/SUZ/EED 25 nM, H3 peptide 10 μM, SAM 3 μM, 30° C. 3 h, read-out: Test Example 1 WT EZH1 IC50
T2 construct: purchased BPS 51006
Method in brief: as §1

[2] = Karpas-422 cells, Cell-Titer Glo on the eleventh day, read-out: Test Example 3 Karpas-422 cell anti-proliferation IC50
[3] = Homo sapiens, KARPAS-422, 72 h, Karpas-422 cells, 3 days incubation, HTRF signal, read-out: Test Example 2 H3K27Me3 inhibition (Karpas-422) IC50
[4] = KARPAS-422, read-out: Test Example 3 Karpas-422 cell anti-proliferation IC50(nM)
[5] = Homo sapiens, KARPAS-422, 72 h, read-out: Test Example 2 H3K27Me3 inhibition (Karpas-422) IC50(nM)

T2 sequence (Q92800 2-747 limits assumed): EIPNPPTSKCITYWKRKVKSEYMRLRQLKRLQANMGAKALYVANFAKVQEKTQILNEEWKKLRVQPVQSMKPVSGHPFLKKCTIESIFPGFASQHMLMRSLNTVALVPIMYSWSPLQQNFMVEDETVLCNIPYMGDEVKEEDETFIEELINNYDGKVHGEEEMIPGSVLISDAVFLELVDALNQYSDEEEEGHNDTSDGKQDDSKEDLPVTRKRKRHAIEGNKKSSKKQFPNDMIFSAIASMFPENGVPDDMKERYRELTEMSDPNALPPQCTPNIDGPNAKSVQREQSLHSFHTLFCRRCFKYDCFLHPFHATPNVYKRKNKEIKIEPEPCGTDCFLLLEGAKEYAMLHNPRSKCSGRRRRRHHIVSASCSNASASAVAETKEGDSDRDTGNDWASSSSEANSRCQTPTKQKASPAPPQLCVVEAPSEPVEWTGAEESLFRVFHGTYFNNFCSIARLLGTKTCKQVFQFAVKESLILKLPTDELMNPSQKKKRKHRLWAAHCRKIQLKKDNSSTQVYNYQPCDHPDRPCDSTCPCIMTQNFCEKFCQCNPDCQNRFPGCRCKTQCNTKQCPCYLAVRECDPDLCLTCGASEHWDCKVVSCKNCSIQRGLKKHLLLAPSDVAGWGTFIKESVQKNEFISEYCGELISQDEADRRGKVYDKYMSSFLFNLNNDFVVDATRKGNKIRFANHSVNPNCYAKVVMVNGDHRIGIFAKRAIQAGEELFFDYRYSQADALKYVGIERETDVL
T2 sequence (Q15022 2-739 partner limits assumed): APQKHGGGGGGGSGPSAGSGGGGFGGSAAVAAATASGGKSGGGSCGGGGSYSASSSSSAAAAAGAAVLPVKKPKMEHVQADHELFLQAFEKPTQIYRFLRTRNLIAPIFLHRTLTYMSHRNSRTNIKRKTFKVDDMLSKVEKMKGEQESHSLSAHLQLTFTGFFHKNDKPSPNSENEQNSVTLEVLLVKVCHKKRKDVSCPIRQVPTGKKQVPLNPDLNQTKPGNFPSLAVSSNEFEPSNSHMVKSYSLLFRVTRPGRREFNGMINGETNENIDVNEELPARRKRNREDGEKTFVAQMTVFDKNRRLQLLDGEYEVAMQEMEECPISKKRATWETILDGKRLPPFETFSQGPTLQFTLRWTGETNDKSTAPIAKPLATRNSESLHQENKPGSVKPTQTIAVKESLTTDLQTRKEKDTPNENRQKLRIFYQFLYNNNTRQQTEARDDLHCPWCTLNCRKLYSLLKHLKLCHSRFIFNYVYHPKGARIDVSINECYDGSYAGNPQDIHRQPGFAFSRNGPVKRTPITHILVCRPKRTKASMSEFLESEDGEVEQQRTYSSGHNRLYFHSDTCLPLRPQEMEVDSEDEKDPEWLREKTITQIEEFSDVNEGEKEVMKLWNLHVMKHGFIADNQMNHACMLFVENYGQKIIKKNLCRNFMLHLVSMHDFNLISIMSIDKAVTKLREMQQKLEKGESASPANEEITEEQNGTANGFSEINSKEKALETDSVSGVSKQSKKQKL
T2 sequence (O75530 2-441 partner limits assumed): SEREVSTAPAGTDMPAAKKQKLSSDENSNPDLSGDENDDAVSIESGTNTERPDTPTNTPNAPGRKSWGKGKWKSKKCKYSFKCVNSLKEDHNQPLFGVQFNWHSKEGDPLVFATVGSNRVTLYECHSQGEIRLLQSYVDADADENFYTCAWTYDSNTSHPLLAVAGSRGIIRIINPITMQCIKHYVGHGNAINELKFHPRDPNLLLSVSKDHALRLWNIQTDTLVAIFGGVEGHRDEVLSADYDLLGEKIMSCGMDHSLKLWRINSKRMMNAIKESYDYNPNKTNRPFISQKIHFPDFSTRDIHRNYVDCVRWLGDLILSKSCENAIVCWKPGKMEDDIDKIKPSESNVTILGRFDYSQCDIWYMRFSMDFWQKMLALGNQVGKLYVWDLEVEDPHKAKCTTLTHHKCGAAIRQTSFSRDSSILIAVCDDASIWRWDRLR
T1 sequence (Q15910 2-746 limits assumed): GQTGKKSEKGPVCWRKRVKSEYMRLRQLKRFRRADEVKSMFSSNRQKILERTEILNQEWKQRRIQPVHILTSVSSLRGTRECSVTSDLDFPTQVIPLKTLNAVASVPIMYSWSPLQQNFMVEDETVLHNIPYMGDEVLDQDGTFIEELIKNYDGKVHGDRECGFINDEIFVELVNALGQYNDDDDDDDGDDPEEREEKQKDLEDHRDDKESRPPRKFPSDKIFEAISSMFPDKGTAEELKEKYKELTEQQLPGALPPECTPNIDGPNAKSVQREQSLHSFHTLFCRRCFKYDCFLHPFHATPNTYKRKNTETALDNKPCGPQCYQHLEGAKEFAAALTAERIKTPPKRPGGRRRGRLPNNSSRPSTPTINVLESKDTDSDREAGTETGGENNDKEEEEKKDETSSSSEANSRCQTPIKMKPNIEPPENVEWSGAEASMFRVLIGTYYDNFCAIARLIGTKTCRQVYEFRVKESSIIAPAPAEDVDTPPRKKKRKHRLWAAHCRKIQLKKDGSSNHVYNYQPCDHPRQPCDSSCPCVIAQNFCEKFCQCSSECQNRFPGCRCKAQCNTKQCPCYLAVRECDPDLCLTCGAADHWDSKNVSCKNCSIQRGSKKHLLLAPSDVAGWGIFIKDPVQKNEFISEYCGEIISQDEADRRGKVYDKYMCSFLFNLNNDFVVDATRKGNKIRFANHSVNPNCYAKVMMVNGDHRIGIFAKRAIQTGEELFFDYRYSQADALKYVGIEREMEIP
T1 sequence (Q15022 2-739 partner limits assumed): as the sequence (Q15022 2-739 partner limits assumed) above
T1 sequence (O75530 2-441 partner limits assumed): as the sequence (O75530 2-441 partner limits assumed) above

SMILES | IC50 (Karpas-422 cells; [2]) [nM] | IC50 (EZH2/SUZ/EED) [nM] | IC50 ([1]; Karpas-422 cells, 3 days incubation, HTRF signal, read-out: Test Example 2 H3K27Me3 inhibition (Karpas-422) IC50) [nM] | IC50 (EZH1/SUZ/EED) [nM] | IC50 [1, 3] [nM] | IC50 (Karpas-422 cells; [4]) [nM] | IC50 [1, 5] [nM]
CSc1cc(C)[nH]c(=O)c1CNC(=O)c1cc(Cl)c2c(c1C)O[C@@H]([C@H]1CC[C@@H](N(C)C)CC1)CO2 [Compound 6] | – | 2.5 | – | 4 | – | 1.3 | 0.59
COC1CN([C@H]2CC[C@@H]([C@H]3COc4c(Cl)cc(C(=O)NCc5c(SC)cc(C)[nH]c5=O)c(C)c4O3)CC2)C1 [Compound 8] | 1.8 | 5.6 | – | 6.2 | 2.4 | – | –
CSc1cc(C)[nH]c(=O)c1CNC(=O)c1cc(Cl)c2c(c1C)O[C@@H]([C@H]1CC[C@@H](N3CC(OC4CC4)C3)CC1)CO2 [Compound 11] | 1.5 | 8.1 | – | 4.8 | 1.7 | – | –
CSc1cc(C)[nH]c(=O)c1CNC(=O)c1cc(Cl)c2c(c1C)O[C@@H]([C@H]1CC[C@@H](N3CC4COCC4C3)CC1)CO2 (some centres unmarked) [Compound 14] | 3.3 | 3.7 | – | 3.7 | 6.8 | – | –
CSc1cc(C)[nH]c(=O)c1CNC(=O)c1cc(Cl)c2c(c1C)OC(C1CCN(CC3CC3)CC1)CO2 (centres unmarked) [Compound 16] | 19.8 | 5.2 | – | 29.6 | 85.9 | – | –
CSc1cc(C)[nH]c(=O)c1CNC(=O)c1cc(Cl)c2c(c1C)O[C@@H]([C@H]1CC[C@@H](N3CCN(C)CC3)CC1)CO2 [Compound 18] | 17.7 | 3.5 | – | 7.4 | 22.8 | – | –
CSc1cc(C)[nH]c(=O)c1CNC(=O)c1cc(Cl)c2c(c1C)O[C@@H]([C@H]1CC[C@H](N3CCN(C)CC3)CC1)CO2 [Compound 19] | 89.5 | 3.4 | – | 26.3 | 284 | – | –
[2H]C([2H])([2H])OC1CN([C@H]2CC[C@@H]([C@H]3COc4c(Cl)cc(C(=O)NCc5c(SC)cc(C)[nH]c5=O)c(C)c4O3)CC2)C1 [Compound 20] | 1.6 | 3.1 | – | 3.3 | 3.2 | – | –
CSc1cc(C)[nH]c(=O)c1CNC(=O)c1cc(Cl)c2c(c1C)O[C@@H]([C@H]1CC[C@@H](N3CCC3)CC1)CO2 [Compound 32] | – | 5.1 | – | 5.7 | – | 2 | 1.7
CSc1cc(C)[nH]c(=O)c1CNC(=O)c1cc(Cl)c2c(c1C)O[C@@H]([C@H]1CC[C@@H](N3CC(CF)C3)CC1)CO2 [Compound 34] | 5.8 | – | – | – | 6.2 | – | –

The next lines start with results.

IC50 (Karpas-422 cells; [2]) [nM] | IC50 (EZH2/SUZ/EED) [nM] | IC50 ([1]; Karpas-422 cells, 3 days incubation, HTRF signal, read-out: Test Example 2 H3K27Me3 inhibition (Karpas-422) IC50) [nM] | IC50 (EZH1/SUZ/EED) [nM] | IC50 [1, 3] [nM] | SMILES | IC50 (Karpas-422 cells; [4]) [nM] | IC50 [1, 5] [nM]
93.8 | 8.8 | 73.8 | 162 | – | COC1CN(C2CCC(C3COc4c(Cl)cc(C(=O)NCc5c(C)cc(C)[nH]c5=O)c(C)c4O3)CC2)C1 (single isomer, unassigned) [Compound 61] | – | –
42.4 | 3.9 | – | 88.5 | 31.2 | Cc1cc(C)c(CNC(=O)c2cc(Cl)c3c(c2C)OC(C2CCC(N(C)C)CC2)CO3)c(=O)[nH]1 (centres unmarked) [Compound 2] | – | –
7.6 | 3.3 | – | 4.4 | 2.1 | CSc1cc(C)[nH]c(=O)c1CNC(=O)c1cc(Cl)c2c(c1C)OC(C1CCC(N(C)C)CC1)CO2 (centres unmarked) [Compound 3] | – | –
23.2 | 2.3 | – | 26 | 7.9 | COc1cc(C)[nH]c(=O)c1CNC(=O)c1cc(Cl)c2c(c1C)OC(C1CCC(N(C)C)CC1)CO2 (centres unmarked) [Compound 5] | – | –
14.1 | 3 | – | 26.8 | 5 | Cc1cc(C)c(CNC(=O)c2cc(Cl)c3c(c2C)O[C@@H](C2CCC(N(C)C)CC2)CO3)c(=O)[nH]1 (some centres unmarked) [Compound 53] | – | –
12.9 | – | – | – | – | COc1cc(C)[nH]c(=O)c1CNC(=O)c1cc(Cl)c2c(c1C)O[C@@H]([C@H]1CC[C@@H](N3CC[C@H](OC)C3)CC1)CO2 [Compound 119] | – | –
